Experimental data reported in US4258034A, “Lactobionic acid poly(H-sulfate) and salts thereof useful as complement inhibitors” (American Cyanamid Company, priority 1979, dated 1981).
Structures can show the parent of a compound that is named as a salt.

Key:
Conditions in all cases: activity in wells, twofold serial dilution assay; higher well number indicates higher activity
[1] = tested on: late components of human complement (C3-C9); test: Test Code 035 (C3-C9 inhibitor), lysis of EAC 142; type: biochemical
From the text: (§1) An active inhibitor protects C2 from C1 and C4; (ii) Test Code 035 (C3-C9 inhibitor)--This test determines the ability of the late components of human complement (C3-C9) to lyse EAC 142 in the presence of appropriate dilutions of the test compound. An active inhibitor protects EAC 142 from lysis by human C3-C9; (iii) Test Code 036 (C-Shunt inhibitor)--In this test human erythrocytes rendered fragile are lysed in autologous serum via the shunt pathway activated by cobra venom factor in the presence of appropriate dilutions of the test compound. Inhibition of the shunt pathway results in failure of lysis; (iv) Forssman Vasculitis Test--Here, the well known complement dependent lesion, Forssman vasculitis, is produced in guinea pigs by intradermal injection of rabbit anti-Forssman antiserum. […]

activated human C1 = test: Test Code 026 (C1 inhibitor); type: biochemical
From the text: as §1

shunt pathway = test: Test Code 036 (C-Shunt inhibitor), lysis of fragile human erythrocytes in autologous serum, cobra venom factor activated; type: cell-based
From the text: as §1

| SMILES | C-Late 035 Wells [1] [Wells] | C1 026 Wells (activated human C1) [Wells] | Shunt Inhibition 036 Wells (shunt pathway) [Wells] |
| --- | --- | --- | --- |
| O=C(O)[C@H](OS(=O)(=O)O)[C@@H](OS(=O)(=O)O)[C@H](O[C@@H]1O[C@H](COS(=O)(=O)O)[C@H](OS(=O)(=O)O)[C@H](OS(=O)(=O)O)[C@H]1OS(=O)(=O)O)[C@@H](COS(=O)(=O)O)OS(=O)(=O)O [Lactobionic acid, octakis (H-sulfate) nonasodium salt] [Lactobionic acid, octakis (H-sulfate), nonasodium salt] | 2 | 8 | 5 |
| O=C(O)[C@H](OS(=O)(=O)O)[C@@H](OS(=O)(=O)O)[C@H](O[C@@H]1O[C@H](COS(=O)(=O)O)[C@H](OS(=O)(=O)O)[C@H](OS(=O)(=O)O)[C@H]1OS(=O)(=O)O)[C@@H](COS(=O)(=O)O)OS(=O)(=O)O [Lactobionic acid, octakis (H-sulfate), nonatrimethylamine sa] [Lactobionic acid, octakis (H-sulfate), nonatrimethylamine salt] | 2 | 8 | 4 |
